Data: patent US8791102B2, “Acetanilide sphingosine-1-phosphate receptor antagonists” (Exelixis, Inc., priority 2008, dated 2014)

Biological target: T1, human S1P1 receptors (Homo sapiens, UniProt P21453)
T1 construct: host or cells: HEK293
Experiment: S1P1R antagonist assay (fluorescent membrane potential dye, cAMP readout)
Format: cell-based
Settings: HEK293 cells expressing human S1P1 receptors and CNG channel; 500 nM NECA; S1P1R agonist 10 nM; 90 minutes; read-out: EC50 or IC50 value
Source text: The S1P1R antagonist assay is a fluorescent membrane potential dye measurement assay, indicative of intracellular cAMP changes due to G protein-coupled receptor activation. HEK293 cells engineered to express human S1P1 receptors and a cyclic nucleotide-gated (CNG) channel are obtained from BD Biosciences, 80300-250. The CNG channels are activated by elevated levels of cAMP, resulting in ion flux and cell membrane depolarization. Membrane depolarization is detected with a membrane potential dye. Stimulation of the cells with 5′-(N-ethylcarboxamido)adenosine (NECA), an A2b receptor agonist (Sigma, E2387), elicits an A2bR-dependent increase in cAMP.
Subsequent exposure of the cells to a S1P1R agonist suppresses the NECA induced increase in cAMP through S1P1R-specific signaling by inhibiting adenylyl cyclase and the formation of cAMP from ATP. The degree to which a test compound overcomes the S1P1R agonist suppression of the NECA induced increase in cAMP is a measure of S1P1R antagonist activity. Antagonist activity is quantified as the IC50 (i.e., the concentration needed to elicited one-half of the maximum response of the test compound) and/or as the EC50 (i.e., the concentration needed to elicited one-half of the NECA induced stimulation).
Day 1: Freshly thawed cells were plated into 384-well plates (Corning, 3683) at a density of 14,000 cells/well in 20 μL, complete media and incubated for 16 hours at 37° C., 5% CO2 and 99% relative humidity. Complete media included Dulbecco's modified Eagle's medium (Invitrogen, 11965-092), 10% Fetal bovine serum (Hyclone, SH30071.03), 250 μg/mL geneticin (Invitrogen, 10131-027), and 1 μg/mL Puromycin (Fluka, 82595).
Day 2: Membrane potential dye (20 μL, BD Biosciences, 341833) was added to each well and the plates were incubated for 2.5 hours at ambient temperature. Test compounds (20 μL) were added to the wells at various concentrations (≦10 μM, 1 to 3 dilutions) in a NECA base solution and incubated for 90 minutes in the presence of the S1P1R agonist {4-((4-phenyl-5-trifluoromethyl-2-thienyl)methoxy)benzyl}-3-azetidinecarboxylic acid (10 nM). The NECA-base solution contained Dulbecco's phosphate-buffered saline (Invitrogen, 14190-136), 2.5% DMSO (Fluka, 41648), 25 μM Ro 20-1724 (Sigma, B8279), and 500 nM NECA).
Assay plates were read with a PerkinElmer EnVision reader (Excitation 350 nm, Emission 590 nm) at time T=0 minutes, before compound addition and at time T=90 minutes. The signal was calculated as the ratio T90/T0. Data was analyzed in ActivityBase XE and graphs showing log of compound concentration (X-axis) vs. % activity (Y-axis) were generated for IC50 determinations. Percent activity was calculated with the following formula: (Signal−Agonist Control Signal)/(NECA Control Signal−Agonist Control Signal)×100.

T1 sequence (P21453 whole entry): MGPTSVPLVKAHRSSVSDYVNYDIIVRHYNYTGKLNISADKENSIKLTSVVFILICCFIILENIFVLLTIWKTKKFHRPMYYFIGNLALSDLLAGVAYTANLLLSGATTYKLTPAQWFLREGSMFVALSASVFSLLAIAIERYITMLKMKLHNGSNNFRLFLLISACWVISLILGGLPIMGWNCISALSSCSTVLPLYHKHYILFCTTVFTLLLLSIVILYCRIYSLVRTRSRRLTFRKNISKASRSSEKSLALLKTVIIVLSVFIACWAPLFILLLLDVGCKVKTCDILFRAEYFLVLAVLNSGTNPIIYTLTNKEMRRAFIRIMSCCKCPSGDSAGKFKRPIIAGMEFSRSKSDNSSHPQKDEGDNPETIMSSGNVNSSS

SMILES	IC50
Cc1[nH]c2ccccc2c1CC(=O)N1C[C@H](Cc2ccccc2)C[C@H]1C(=O)Nc1ccc(Oc2ccc(F)cc2)cc1 [Compound 37, (2S,4R)-4-benzyl-N-(4-(4-fluorophenoxy)phenyl)-1-(2-(2-methyl-1H-indol-3-yl)acetyl)pyrrolidine-2-carboxamide]	≤ 300 nM
CCCCOCC(=O)N1C[C@H](Cc2ccccc2)C[C@H]1C(=O)Nc1ccc(Oc2ccc(F)cc2)cc1 [Compound 38, (2S,4R)-4-benzyl-1-(2-butoxyacetyl)-N-(4-(4-fluorophenoxy)phenyl)pyrrolidine-2-carboxamide]	≤ 300 nM
O=C(CN1CCN(c2ncccn2)CC1)N[C@@H](COCc1ccccc1)C(=O)Nc1ccc(Oc2ccc(F)cc2)cc1 [Compound 41, (S)-3-(benzyloxy)-N-(4-(4-fluorophenoxy)phenyl)-2-(2-(4-(pyrimidin-2-yl)piperazin-1-yl)acetamido)propanamide]	> 1000 nM
COc1cccc(N2CCN(CC(=O)N[C@@H](COCc3ccccc3)C(=O)Nc3ccc(Oc4ccc(F)cc4)cc3)CC2)c1 [Compound 42, (S)-3-(benzyloxy)-N-(4-(4-fluorophenoxy)phenyl)-2-(2-(4-(3-methoxyphenyl)piperazin-1-yl)acetamido)propanamide]	> 1000 nM
O=C(CN1CCC(N2CCCC2)CC1)N[C@@H](COCc1ccccc1)C(=O)Nc1ccc(Oc2ccc(F)cc2)cc1 [Compound 43, (S)-3-(benzyloxy)-N-(4-(4-fluorophenoxy)phenyl)-2-(2-(4-(pyrrolidin-1-yl)piperidin-1-yl)acetamido)propanamide]	> 1000 nM
O=C(Cc1coc(-c2ccccc2)n1)N[C@@H](COCc1ccc(F)cc1)C(=O)Nc1ccc(Oc2ccc(F)cc2)cc1 [Compound 44, (S)-3-(4-fluorobenzyloxy)-N-(4-(4-fluorophenoxy)phenyl)-2-(2-(2-phenyloxazol-4-yl)acetamido)propanamide]	> 1000 nM
O=C(CN1CCCC2CCCCC21)N[C@@H](COCc1ccccc1)C(=O)Nc1ccc(Oc2ccc(F)cc2)cc1 (stereo partly drawn) [Compound 45, (2S)-3-(benzyloxy)-N-(4-(4-fluorophenoxy)phenyl)-2-(2-(octahydroquinolin-1(2H)-yl)acetamido)propanamide]	> 1000 nM
CC1CCCN(CC(=O)N[C@@H](COCc2ccccc2)C(=O)Nc2ccc(Oc3ccc(F)cc3)cc2)C1 (stereo partly drawn) [Compound 46, (2S)-3-(benzyloxy)-N-(4-(4-fluorophenoxy)phenyl)-2-(2-(3-methylpiperidin-1-yl)acetamido)propanamide]	> 1000 nM
Cc1cc(Oc2ccc(F)cc2)ccc1NC(=O)[C@H](COCc1ccccc1)NC(=O)Cc1cnc[nH]1 [Compound 47, (S)-2-(2-(1H-imidazol-5-yl)acetamido)-3-(benzyloxy)-N-(4-(4-fluorophenoxy)-2-methylphenyl)propanamide]	> 1000 nM
Cc1ccccc1C[C@@H]1C[C@@H](C(=O)Nc2ccc(Oc3ccc(F)cc3)cc2)N(C(=O)Cn2nccn2)C1 [Compound 48, (2S,4R)-1-(2-(2H-1,2,3-triazol-2-yl)acetyl)-N-(4-(4-fluorophenoxy)phenyl)-4-(2-methylbenzyl)pyrrolidine-2-carboxamide]	≤ 300 nM
O=C(Nc1ccc(Oc2ccc(F)cc2)cc1)[C@@H]1C[C@@H](Cc2cccc(F)c2)CN1C(=O)Cn1nccn1 [Compound 49, (2S,4R)-1-(2-(2H-1,2,3-triazol-2-yl)acetyl)-4-(3-fluorobenzyl)-N-(4-(4-fluorophenoxy)phenyl)pyrrolidine-2-carboxamide]	≤ 300 nM
O=C(Nc1ccc(Oc2ccc(F)cc2)cc1)[C@@H]1C[C@@H](Cc2ccc(F)cc2)CN1C(=O)Cn1nccn1 [Compound 50, (2S,4R)-1-(2-(2H-1,2,3-triazol-2-yl)acetyl)-4-(4-fluorobenzyl)-N-(4-(4-fluorophenoxy)phenyl)pyrrolidine-2-carboxamide]	≤ 300 nM
O=C(Nc1ccc(Oc2ccc(F)cc2)cc1)[C@@H]1C[C@@H](Cc2cccc(F)c2)CN1C(=O)Cn1cncn1 [Compound 51, (2S,4R)-1-(2-(1H-1,2,4-triazol-1-yl)acetyl)-4-(3-fluorobenzyl)-N-(4-(4-fluorophenoxy)phenyl)pyrrolidine-2-carboxamide]	≤ 300 nM
O=C(Nc1ccc(Oc2ccc(F)cc2)cc1)[C@@H]1C[C@@H](Cc2ccc(F)cc2F)CN1C(=O)Cn1nccn1 [Compound 52, (2S,4R)-1-(2-(2H-1,2,3-triazol-2-yl)acetyl)-4-(2,4-difluorobenzyl)-N-(4-(4-fluorophenoxy)phenyl)pyrrolidine-2-carboxamide]	≤ 300 nM
O=C(Nc1ccc(Oc2ccc(F)cc2)cc1)[C@@H]1C[C@@H](Cc2ccc(F)cc2F)CN1C(=O)Cn1cncn1 [Compound 53, (2S,4R)-1-(2-(1H-1,2,4-triazol-1-yl)acetyl)-4-(2,4-difluorobenzyl)-N-(4-(4-fluorophenoxy)phenyl)pyrrolidine-2-carboxamide]	≤ 300 nM
O=C(Nc1ccc(Oc2ccc(F)cc2)cc1)[C@@H]1C[C@@H](Cc2ccccc2C(F)(F)F)CN1C(=O)Cn1cncn1 [Compound 54, (2S,4R)-1-(2-(1H-1,2,4-triazol-1-yl)acetyl)-N-(4-(4-fluorophenoxy)phenyl)-4-(2-(trifluoromethyl)benzyl)pyrrolidine-2-carboxamide]	≤ 300 nM
Cc1ccccc1C[C@@H]1C[C@@H](C(=O)Nc2ccc(Oc3ccc(F)cc3)cc2)N(C(=O)Cn2cncn2)C1 [Compound 55, (2S,4R)-1-(2-(1H-1,2,4-triazol-1-yl)acetyl)-N-(4-(4-fluorophenoxy)phenyl)-4-(2-methylbenzyl)pyrrolidine-2-carboxamide]	≤ 300 nM

The remaining lines, values ahead:

IC50	SMILES
≤ 300 nM	O=C(Nc1ccc(Oc2ccc(F)cc2)cc1)[C@@H]1C[C@@H](Cc2ccccc2)CN1C(=O)Cc1ccccc1 [Compound 31, (2S,4R)-4-benzyl-N-(4-(4-fluorophenoxy)phenyl)-1-(2-phenylacetyl)pyrrolidine-2-carboxamide]
≤ 300 nM	Cc1cc(CC(=O)N2C[C@H](Cc3ccccc3)C[C@H]2C(=O)Nc2ccc(Oc3ccc(F)cc3)cc2)on1 [Compound 32, (2S,4R)-4-benzyl-N-(4-(4-fluorophenoxy)phenyl)-1-(2-(3-methylisoxazol-5-yl)acetyl)pyrrolidine-2-carboxamide]
≤ 300 nM	O=C(Nc1ccc(Oc2ccc(F)cc2)cc1)[C@@H]1C[C@@H](Cc2ccccc2)CN1C(=O)CCCc1ccc2c(c1)OCCO2 [Compound 33, (2S,4R)-4-benzyl-1-(4-(2,3-dihydrobenzo[b][1,4]dioxin-6-yl)butanoyl)-N-(4-(4-fluorophenoxy)phenyl)pyrrolidine-2-carboxamide]
≤ 300 nM	O=C(Nc1ccc(Oc2ccc(F)cc2)cc1)[C@@H]1C[C@@H](Cc2ccccc2)CN1C(=O)CC(F)(F)F [Compound 34, (2S,4R)-4-benzyl-N-(4-(4-fluorophenoxy)phenyl)-1-(3,3,3-trifluoropropanoyl)pyrrolidine-2-carboxamide]
≤ 300 nM	CN(C)c1ccc(CC(=O)N2C[C@H](Cc3ccccc3)C[C@H]2C(=O)Nc2ccc(Oc3ccc(F)cc3)cc2)cc1 [Compound 35, (2S,4R)-4-benzyl-1-(2-(4-(dimethylamino)phenyl)acetyl)-N-(4-(4-fluorophenoxy)phenyl)pyrrolidine-2-carboxamide]
≤ 300 nM	O=C(Nc1ccc(Oc2ccc(F)cc2)cc1)[C@@H]1C[C@@H](Cc2ccccc2)CN1C(=O)C1CCOC1 (stereo partly drawn) [Compound 36, (2S,4R)-4-benzyl-N-(4-(4-fluorophenoxy)phenyl)-1-(tetrahydrofuran-3-carbonyl)pyrrolidine-2-carboxamide]
≤ 300 nM	O=C1CC[C@@H](C(=O)N2C[C@H](Cc3ccccc3)C[C@H]2C(=O)Nc2ccc(Oc3ccc(F)cc3)cc2)O1 [Compound 39, (2S,4R)-4-benzyl-N-(4-(4-fluorophenoxy)phenyl)-1-((S)-5-oxotetrahydrofuran-2-carbonyl)pyrrolidine-2-carboxamide]
≤ 300 nM	O=C(Nc1ccc(Oc2ccc(F)cc2)cc1)[C@@H]1C[C@@H](Cc2ccccc2)CN1C(=O)[C@H](O)c1ccccc1 [Compound 40, (2S,4R)-4-benzyl-N-(4-(4-fluorophenoxy)phenyl)-1-((R)-2-hydroxy-2-phenylacetyl)pyrrolidine-2-carboxamide]
